Data: patent publication US12383545B1, “Treatment of migraine” (priority 2018, dated 2025)

Legend:
[1] = system: Alkaline Phosphatase; test: Example 5: postbaseline hepatic laboratory parameter values of clinical interest, Alkaline Phosphatase; type: in vivo, human; conditions: safety population
Description: This study consisted of a 4-week screening and baseline period and a 12-week double-blind treatment period, which was followed by a 4-week safety follow-up period. Total study duration is 20-weeks.
To be randomized, eligible patients had to be 18 to 75 years of age (inclusive), have a history of migraine with or without aura for at least 1 year consistent with a diagnosis according to the International Classification of Headache Disorders criteria, 3rd edition, beta version, have experienced 4 to 14 migraine/probable migraine headache days and <15 headache days in the 28-day baseline period. Patients who had clinically significant hematologic, endocrine, cardiovascular, cerebrovascular, pulmonary, renal, hepatic, gastrointestinal, or neurologic disease were excluded from the study.
A total of 834 patients were randomized to double-blind treatment (ITT population), and 825 patients took at least 1 dose of double-blind IP (safety population). […] The primary efficacy variable was the change from baseline in mean monthly migraine/probable migraine headache days across the 12-week treatment period. The secondary efficacy variables were the change from baseline in mean monthly headache days across the 12-week treatment period, proportion of patients with at least a 50% reduction in mean monthly migraine/probable migraine headache days across the 12-week treatment period, and the change from baseline in mean monthly acute medication use days across the 12-week treatment period.

[2] = system: participants with episodic migraine; test: Study A: adverse events (safety population); type: in vivo, human; conditions: for Deaths, n (%) / TEAE Constipation, n (%) / TEAE Fatigue, n (%) / TEAE Gastroenteritis, n (%) / TEAE Influenza, n (%) / TEAE Nasopharyngitis, n (%) / TEAE Nausea, n (%) / TEAE Sinus Congestion, n (%) / TEAE Sinusitis, n (%) / TEAE Somnolence, n (%) / TEAE Upper Respiratory Tract Infection, n (%) / TEAE Urinary Tract Infection, n (%): Study A, safety population
Method: Adverse events were reported by participants throughout the trial, and at a 4-week follow-up visit. Adverse event information was collected and documented during each clinic visit. Participants could also report adverse events via telephone call between visits. Causality of each adverse event was determined by the investigator who was blinded to the treatment. In addition, clinical laboratory tests, vital signs, electrocardiograms (ECG), and Columbia-Suicide Severity Rating Scale were evaluated. Based on the potential hepatotoxicity of prior gepants, treatment-emergent elevations in ALT or AST ≥3 times the upper limit of normal, as well as potential Hy's law cases, were evaluated as prespecified adverse events of special interest and were reviewed by an independent panel of liver experts blinded to treatment (see, e.g., Negro A et al., CGRP Receptor Antagonists: an expanding drug class for acute migraine? Expert Opin Investig Drugs 2012; 21:807-18; Messina R et al., CGRP—a target for acute therapy in migraine: Clinical Data. Cephalalgia 2019; 39:420-7).
Safety population included all randomized participants who took at least 1 dose of trial treatment. Participants are only counted once within each category. Percentages are calculated at 100×(n/N), where n is the number of participants within a specific category and N is the number of participants in the safety population for the treatment group. Adverse events are listed in decreasing order based on frequency reported in the overall population.

C[C@@H]1[C@H](c2c(F)ccc(F)c2F)C[C@H](NC(=O)c2cnc3c(c2)C[C@@]2(C3)C(=O)Nc3ncccc32)C(=O)N1CC(F)(F)F [atogepant]
Participants with postbaseline Alkaline Phosphatase (U/L) >=1 * ULN, (%) ([1]; Atogepant 10 mg QD (N = 93)): (5.4) %
Participants with postbaseline Alkaline Phosphatase (U/L) >=1 * ULN, n/N1 ([1]; Atogepant 10 mg QD (N = 93)): 5/92
Participants with postbaseline Alkaline Phosphatase (U/L) >=1.5 * ULN, (%) ([1]; Atogepant 10 mg QD (N = 93)): (1.1) %
Participants with postbaseline Alkaline Phosphatase (U/L) >=1.5 * ULN, n/N1 ([1]; Atogepant 10 mg QD (N = 93)): 1/92
Participants with postbaseline Alkaline Phosphatase (U/L) >=2 * ULN, (%) ([1]; Atogepant 10 mg QD (N = 93)): (1.1) %
Participants with postbaseline Alkaline Phosphatase (U/L) >=2 * ULN, n/N1 ([1]; Atogepant 10 mg QD (N = 93)): 1/92
Participants with postbaseline Alkaline Phosphatase (U/L) >=3 * ULN, n/N1 ([1]; Atogepant 10 mg QD (N = 93)): 0
Participants with postbaseline Alkaline Phosphatase (U/L) >=5 * ULN, n/N1 ([1]; Atogepant 10 mg QD (N = 93)): 0
Participants with postbaseline Alkaline Phosphatase (U/L) >=10 * ULN, n/N1 ([1]; Atogepant 10 mg QD (N = 93)): 0
Participants with postbaseline Alkaline Phosphatase (U/L) >=20 * ULN, n/N1 ([1]; Atogepant 10 mg QD (N = 93)): 0
Participants with postbaseline Alkaline Phosphatase (U/L) >=1 * ULN, (%) ([1]; Atogepant 30 mg BID (N = 86)): (2.4) %
Participants with postbaseline Alkaline Phosphatase (U/L) >=1 * ULN, n/N1 ([1]; Atogepant 30 mg BID (N = 86)): 2/84
Participants with postbaseline Alkaline Phosphatase (U/L) >=1.5 * ULN, n/N1 ([1]; Atogepant 30 mg BID (N = 86)): 0
Participants with postbaseline Alkaline Phosphatase (U/L) >=2 * ULN, n/N1 ([1]; Atogepant 30 mg BID (N = 86)): 0
Participants with postbaseline Alkaline Phosphatase (U/L) >=3 * ULN, n/N1 ([1]; Atogepant 30 mg BID (N = 86)): 0
Participants with postbaseline Alkaline Phosphatase (U/L) >=5 * ULN, n/N1 ([1]; Atogepant 30 mg BID (N = 86)): 0
Participants with postbaseline Alkaline Phosphatase (U/L) >=10 * ULN, n/N1 ([1]; Atogepant 30 mg BID (N = 86)): 0
Participants with postbaseline Alkaline Phosphatase (U/L) >=20 * ULN, n/N1 ([1]; Atogepant 30 mg BID (N = 86)): 0
Participants with postbaseline Alkaline Phosphatase (U/L) >=1 * ULN, (%) ([1]; Atogepant 30 mg QD (N = 183)): (10.6) %
Participants with postbaseline Alkaline Phosphatase (U/L) >=1 * ULN, n/N1 ([1]; Atogepant 30 mg QD (N = 183)): 19/179
Participants with postbaseline Alkaline Phosphatase (U/L) >=1.5 * ULN, (%) ([1]; Atogepant 30 mg QD (N = 183)): (0.6) %
Participants with postbaseline Alkaline Phosphatase (U/L) >=1.5 * ULN, n/N1 ([1]; Atogepant 30 mg QD (N = 183)): 1/179
Participants with postbaseline Alkaline Phosphatase (U/L) >=2 * ULN, n/N1 ([1]; Atogepant 30 mg QD (N = 183)): 0
Participants with postbaseline Alkaline Phosphatase (U/L) >=3 * ULN, n/N1 ([1]; Atogepant 30 mg QD (N = 183)): 0
Participants with postbaseline Alkaline Phosphatase (U/L) >=5 * ULN, n/N1 ([1]; Atogepant 30 mg QD (N = 183)): 0
Participants with postbaseline Alkaline Phosphatase (U/L) >=10 * ULN, n/N1 ([1]; Atogepant 30 mg QD (N = 183)): 0
Participants with postbaseline Alkaline Phosphatase (U/L) >=20 * ULN, n/N1 ([1]; Atogepant 30 mg QD (N = 183)): 0
Participants with postbaseline Alkaline Phosphatase (U/L) >=1 * ULN, (%) ([1]; Atogepant 60 mg BID (N = 91)): (3.4) %
Participants with postbaseline Alkaline Phosphatase (U/L) >=1 * ULN, n/N1 ([1]; Atogepant 60 mg BID (N = 91)): 3/88
Participants with postbaseline Alkaline Phosphatase (U/L) >=1.5 * ULN, n/N1 ([1]; Atogepant 60 mg BID (N = 91)): 0
Participants with postbaseline Alkaline Phosphatase (U/L) >=2 * ULN, n/N1 ([1]; Atogepant 60 mg BID (N = 91)): 0
Participants with postbaseline Alkaline Phosphatase (U/L) >=3 * ULN, n/N1 ([1]; Atogepant 60 mg BID (N = 91)): 0
Participants with postbaseline Alkaline Phosphatase (U/L) >=5 * ULN, n/N1 ([1]; Atogepant 60 mg BID (N = 91)): 0
Participants with postbaseline Alkaline Phosphatase (U/L) >=10 * ULN, n/N1 ([1]; Atogepant 60 mg BID (N = 91)): 0
Participants with postbaseline Alkaline Phosphatase (U/L) >=20 * ULN, n/N1 ([1]; Atogepant 60 mg BID (N = 91)): 0
Participants with postbaseline Alkaline Phosphatase (U/L) >=1 * ULN, (%) ([1]; Atogepant 60 mg QD (N = 186)): (6.6) %
Participants with postbaseline Alkaline Phosphatase (U/L) >=1 * ULN, n/N1 ([1]; Atogepant 60 mg QD (N = 186)): 12/181
Participants with postbaseline Alkaline Phosphatase (U/L) >=1.5 * ULN, n/N1 ([1]; Atogepant 60 mg QD (N = 186)): 0
Participants with postbaseline Alkaline Phosphatase (U/L) >=2 * ULN, n/N1 ([1]; Atogepant 60 mg QD (N = 186)): 0
Participants with postbaseline Alkaline Phosphatase (U/L) >=3 * ULN, n/N1 ([1]; Atogepant 60 mg QD (N = 186)): 0
Participants with postbaseline Alkaline Phosphatase (U/L) >=5 * ULN, n/N1 ([1]; Atogepant 60 mg QD (N = 186)): 0
Participants with postbaseline Alkaline Phosphatase (U/L) >=10 * ULN, n/N1 ([1]; Atogepant 60 mg QD (N = 186)): 0
Participants with postbaseline Alkaline Phosphatase (U/L) >=20 * ULN, n/N1 ([1]; Atogepant 60 mg QD (N = 186)): 0
Deaths, n (%) ([2]; 10 mg QD): (0.0) %
TEAE Constipation, n (%) ([2]; 10 mg QD): (7.7) %
TEAE Fatigue, n (%) ([2]; 10 mg QD): (1.4) %
TEAE Gastroenteritis, n (%) ([2]; 10 mg QD): (0.9) %
TEAE Influenza, n (%) ([2]; 10 mg QD): (1.4) %
TEAE Nasopharyngitis, n (%) ([2]; 10 mg QD): (1.8) %
TEAE Nausea, n (%) ([2]; 10 mg QD): (5.0) %
TEAE Sinus Congestion, n (%) ([2]; 10 mg QD): (0.5) %
TEAE Sinusitis, n (%) ([2]; 10 mg QD): (1.8) %
TEAE Somnolence, n (%) ([2]; 10 mg QD): (3.2) %
TEAE Upper Respiratory Tract Infection, n (%) ([2]; 10 mg QD): (4.1) %
TEAE Urinary Tract Infection, n (%) ([2]; 10 mg QD): (1.4) %
Deaths, n (%) ([2]; 30 mg QD): (0.0) %
TEAE Constipation, n (%) ([2]; 30 mg QD): (7.0) %
TEAE Fatigue, n (%) ([2]; 30 mg QD): (3.1) %
TEAE Gastroenteritis, n (%) ([2]; 30 mg QD): (2.2) %
TEAE Influenza, n (%) ([2]; 30 mg QD): (0.9) %
TEAE Nasopharyngitis, n (%) ([2]; 30 mg QD): (3.5) %
TEAE Nausea, n (%) ([2]; 30 mg QD): (4.4) %
TEAE Sinus Congestion, n (%) ([2]; 30 mg QD): (0.9) %
TEAE Sinusitis, n (%) ([2]; 30 mg QD): (1.3) %
TEAE Somnolence, n (%) ([2]; 30 mg QD): (1.8) %
TEAE Upper Respiratory Tract Infection, n (%) ([2]; 30 mg QD): (5.7) %
TEAE Urinary Tract Infection, n (%) ([2]; 30 mg QD): (3.9) %
Deaths, n (%) ([2]; 60 mg QD): (0.0) %
TEAE Constipation, n (%) ([2]; 60 mg QD): (6.9) %
TEAE Fatigue, n (%) ([2]; 60 mg QD): (3.9) %
TEAE Gastroenteritis, n (%) ([2]; 60 mg QD): (1.3) %
TEAE Influenza, n (%) ([2]; 60 mg QD): (2.2) %
TEAE Nasopharyngitis, n (%) ([2]; 60 mg QD): (3.5) %
TEAE Nausea, n (%) ([2]; 60 mg QD): (6.1) %
TEAE Sinus Congestion, n (%) ([2]; 60 mg QD): (1.7) %
TEAE Sinusitis, n (%) ([2]; 60 mg QD): (2.2) %
TEAE Somnolence, n (%) ([2]; 60 mg QD): (1.7) %
TEAE Upper Respiratory Tract Infection, n (%) ([2]; 60 mg QD): (3.9) %
TEAE Urinary Tract Infection, n (%) ([2]; 60 mg QD): (3.9) %
cases of constipation mild in severity ([2]; human, in vivo, 12 weeks): 71.4%
cases of constipation moderate in severity ([2]; human, in vivo, 12 weeks): 26.5%
cases of nausea mild in severity ([2]; human, in vivo, 12 weeks): 77.1%
cases of nausea moderate in severity ([2]; human, in vivo, 12 weeks): 22.9%
frequency of upper respiratory tract infection ([2]; human, in vivo, 12 weeks): 3.9-5.7%
